# Columns and labels:
# JAK2V617F HUVECs [1] = assay: In vitro static adhesion on endothelial cells; format: cell-based, human; details: HUVECs pretreated 24 hours with hydroxyurea 100 μM
# Procedure: Cell culture/Lentivirus transduction. Human umbilical venous endothelial cells (HUVECs, Lonza, Basel, Swiss) were cultured in EGM-2 media (Lonza, CC-3156) supplemented with EGM-2 Single Quots (Lonza, CC-4176). Cells were transduced with GFP lentivirus encoding human JAK2V617F or JAK2WT by adding lentiviral supernatant to the medium and incubating overnight at 37° C. An empty lentivirus encoding only for GFP was used as a negative control. Lentivirus were transduced at a multiplicity of infection of 20, allowing more than 95% of GFP positive cells. Transgene stability was verified after each passage and remaining stable throughout the passages. HUVECs were used for experiments between passage 5 and passage 7.
# In vitro static adhesion on endothelial cells. Blood samples were performed from well healthy voluntary witnesses. Blood was diluted with PBS (1/2 dilution) and deposed on lymphocyte separation medium (Pancoll, Dominique Dutscher, Brumath, France) before centrifugation at 450 g during 20 minutes to obtain mononuclear cells (MNC). […] We visualized adherent cells using a fluorescent microscope (AxioObserver, Zeiss, Oberkochen, Germany) and analysed images by ZEN imaging software (Zeiss). Well surface was quantified in order to obtain the following ratio: number of adherent cells/mm2. […]
# [2] = test system: Pdgfb-iCreERT2;JAK2^V617F/WT mice; assay: Intravital microscopy of mesenteric venules (leukocyte rolling and adhesion); format: in vivo; details: HU 200 mg/kg/day oral gavage 10 days, low dose TNF-alpha
# Excerpt: (§1) Generation and characterization of Pdgfb-iCreERT2;JAK2^V617F/WT mice. The conditional flexed JAK2 (JAK2V617F/WT) mice were generously provided by J. L Villeval and have been previously described^19. The double-heterozygous Pdgfb-iCreERT2;JAK2^V617F/WT mice were generated by crossing JAK2^V617F/WT mice with Pdgfb-iCreERT2 mice allowing tamoxifen-inducible adult expression of JAK2^V617F in endothelium. Littermate Pdgfb-iCreERT2-negative;JAK2^V617F/WT mice were used as controls. To induce Cre activity in Pdgfb-iCreERT2;JAK2^V617F/WT mice, we used oral gavage of a single dose of 8 mg of tamoxifen. Tamoxifen induction was performed in 5 weeks-old animals. Mutant mice were analysed 2-3 weeks after tamoxifen administration. Ears of adult mice were genotyped by PCR. Haematocrit, hemoglobin level, platelet, and white cells count were determined using an automated counter (scil Vet abc Plus+) on blood collected from the sublingual vein in EDTA containing tubes. […]
# Video analysis. Rolling leukocytes were quantitated by counting the number of rhodamin-marked cells passing a given plane perpendicular to the vessel axis in 30 seconds. Adherent leukocytes were quantitated by counting the number of rhodamin-marked cells motionless during 30 seconds. Vessel surface was quantitated to perform the following ratio: adherent cells/vessel surface (number of cells/cm2). […]
# [3] = test system: Pdgfb-iCreERT2;JAK2^V617F/WT mice; assay: Mouse model of thrombus formation (low dose TNF-alpha induced lung thrombus formation); format: in vivo; details: HU 200 mg/kg/day oral gavage 10 days
# Excerpt: as §1
# Histology. To quantify thrombus formation in mice, Carstair's staining was performed. […] Thrombus quantification was performed using an optical microscope and pulmonary area was quantitated to perform the following ratio: thrombi number/pulmonary area (number of thrombi/cm2). Three slides by mice were analysed by two independent observers, blindly. […]
# JAK2V617F HUVECs [4] = assay: Quantification of VWF in HUVEC supernatant; format: cell-based, human; details: 24 hours with 100 μM hydroxyurea
# Procedure: Quantification of VWF in HUVEC supernatant and in HUVECs. HUVEC cell were seeded in 12 wells plate (Costar). When they were confluent, they were washed with 500 μL of PBS (Gibco ThermoFisher Scientific) before adding 500 μL of medium not deprived. Experiments were performed in absence or in presence of TNF-alpha (10 ng/ml during 24 hours) (Merck Millipore). After 24 hours, supernatant was removed, centrifuged at 12000 g during 5 minutes and stored at −80° C. To quantify vWF in HUVECs, cells were washed with PBS before adding in wells 500 μL of PBS. Cells were destroyed in wells with scrapper. Liquid was removed and 5 freezing and thawing successions were performed. Finally, the intracellular lysates were centrifuged at 12000 g during 5 minutes and stored at −80° C. As previously published^45, vWF was quantified following this method: […] plate (Greiner, Flat Bottom) were coated with an anti-vWF antibody (DAKO, Les Ulis, France, A0082) diluted at 1/660 in a coating buffer overnight at 4° C. After washing and blocking, sample of HUVEC supernatant and intracellular lysate were put in wells. Standards were realized with a platelet poor plasma from a healthy donor. […] After 2 minutes of coloration, the reaction was blocked with a H2SO4 3M solution and reading was performed at 492 nm with OPTIMA plate reader. […]
# sickle cell mice = details: TNF-alpha treated sickle cell mice; cited from earlier work
# P-selectin = molecular target: T1, P-selectin (Homo sapiens, UniProt P16109); details: clinical trial, patients; cited from earlier work
# T1 construct: host or cells: sickle cell disease patients (cited clinical trial)
# T1 sequence (P16109 42-830): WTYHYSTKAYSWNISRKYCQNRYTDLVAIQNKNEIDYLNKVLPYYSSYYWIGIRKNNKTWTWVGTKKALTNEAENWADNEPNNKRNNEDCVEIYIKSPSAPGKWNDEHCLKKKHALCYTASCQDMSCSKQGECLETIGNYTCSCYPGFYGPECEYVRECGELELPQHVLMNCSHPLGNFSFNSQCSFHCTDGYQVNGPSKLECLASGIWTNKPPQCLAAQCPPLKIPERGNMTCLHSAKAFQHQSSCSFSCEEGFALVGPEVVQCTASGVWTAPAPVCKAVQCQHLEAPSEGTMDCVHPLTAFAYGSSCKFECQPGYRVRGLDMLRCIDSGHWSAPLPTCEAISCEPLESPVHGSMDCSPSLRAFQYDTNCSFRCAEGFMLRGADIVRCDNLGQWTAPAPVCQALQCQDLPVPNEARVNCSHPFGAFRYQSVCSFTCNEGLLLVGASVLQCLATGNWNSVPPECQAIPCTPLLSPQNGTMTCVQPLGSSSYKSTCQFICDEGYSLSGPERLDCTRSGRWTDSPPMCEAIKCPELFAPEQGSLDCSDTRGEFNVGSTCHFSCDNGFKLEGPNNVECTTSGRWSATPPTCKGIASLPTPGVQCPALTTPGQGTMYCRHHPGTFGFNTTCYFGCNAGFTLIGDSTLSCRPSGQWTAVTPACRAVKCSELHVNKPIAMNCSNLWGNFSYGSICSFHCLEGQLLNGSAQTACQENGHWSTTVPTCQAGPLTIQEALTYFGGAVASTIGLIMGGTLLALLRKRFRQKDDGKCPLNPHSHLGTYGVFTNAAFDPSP
Molecule,neutrophil adhesion on JAK2V617F HUVECs (JAK2V617F HUVECs [1]),leukocyte adhesion [2],leukocyte rolling [2],thrombus formation in lungs [3],vWF concentrations in the supernatant of JAK2V617F HUVECs (JAK2V617F HUVECs [4]),leukocyte rolling in the microvasculature (sickle cell mice),pain crises in sickle cell disease (P-selectin)
NC(=O)NO [hydroxyurea],significant reduction,reduction,reduction,significant inhibition,decreased,reduction,
"crizanlizumab: anti-P-selectin antibody, SEG101 also named crizanlizumab (antibody, chains of the INN, looked up, V domains shown) VH: QVQLVQSGAEVKKPGASVKVSCKVSGYTFTSYDINWVRQAPGKGLEWMGWIYPGDGSIKYNEKFKGRVTMTVDKSTDTAYMELSSLRSEDTAVYYCARRGEYGNYEGAMDYWGQGTLVTVSS VL: DIQMTQSPSSLSASVGDRVTITCKASQSVDYDGHSYMNWYQQKPGKAPKLLIYAASNLESGVPSRFSGSGSGTDFTLTISSLQPEDFATYYCQQSDENPLTFGGGTKVEIK",,,,,,,efficiently prevented
